Reference: patent publication US20260097047A1, “Small molecule inhibitors of the ribosome biogenesis factor NVL2” (Board of Regents, The University of Texas System, priority 2023, published 2026)

The compounds below were run on HCT116 cells (assay: Cell viability assay (CellTiter-Glo, 72 hours) in HCT116 human colorectal cancer cells). Conditions: Homo sapiens, HCT-116; Table 1; HCT116, 72 hours; read-out: Activity.
Format: cell-based
Procedure: Cell culture: The HCT116 cell line was obtained from ATCC and cultured in Dulbecco's Modified Eagle's Medium (DMEM)-high glucose (Sigma Aldrich #D5796) supplemented with 10% fetal bovine serum (FBS) (Sigma-Aldrich #F2442) and 2 mM L-Glutamine (Sigma Aldrich #G7513). Cells were cultured at 37° C. in 5% CO2. The identity of all cell lines was confirmed by short tandem repeat (STR) analysis and confirmed to be mycoplasma-free using a PCR based assay (Genatlantis).
Cell viability assay: In 96-well assay plates (Corning #2903), 2,000 cells were plated per well in 100 μL of medium and allowed to adhere overnight. The next day, compounds suspended in DMSO were dispensed to the assayed wells using a D300e Digital Dispenser (Tecan). All wells were normalized to 0.5% DMSO. 72 hours after incubation at 37° C. in 5% CO2, cell viability was assayed using an ATP-based luminescent viability assay, CellTiter-Glo (Promega #G8462). Substrate was mixed 1:1 with phosphate-buffered saline (PBS) supplemented with 1% Triton X-100, and 40 μL of this mixture was added to the assay wells. Plates were shaken on a microplate shaker for 10 minutes at room temperature. Luminescence (CellTiter-Glo) was recorded using a Synergy 2 microplate reader (BioTek). In Prism 9 software (GraphPad), ten-point dose response curves were plotted with baseline-correction to the vehicle control well, and IC50 values were calculated by curve fitting using asymmetric (five parameter), least squares fit.

SMILES | IC50 [nM]
CC#CCN1C(=O)c2ccccc2Sc2cc(NC(=O)N3CCC3)ccc21 [Table 1: —CH2CCMe; azetidin-1-yl; CH; CH, N-(10-(But-2-yn-1-yl)-11-oxo-10,11-dihydrodibenzo[b,f][1,4]thiazepin-7-yl) azetidine-1-carboxamide] | < 500

Same assay, conditions: Homo sapiens, HCT-116; Table 5; HCT116, 72 hours; read-out: Activity

SMILES | IC50 [nM]
C#Cc1cccnc1Nc1ccc2c(c1)Sc1ccccc1C(=O)N2CC#CC [10-(But-2-yn-1-yl)-7-((3-ethynylpyridin-2-yl)amino)dibenzo[b,f][1,4]thiazepin-11 (10H)-one] | < 500

Same assay, conditions: Homo sapiens, HCT-116; Table 6; HCT116, 72 hours; read-out: Activity

SMILES | IC50 [nM]
CC#CCN1C(=O)c2ccccc2Sc2cc(NCC3(C)COC3)ccc21 [10-(But-2-yn-1-yl)-7-(((3-methyloxetan-3-yl)methyl)amino)dibenzo[b,f][1,4]thiazepin-11 (10H)-one] | < 500
CC#CCN1C(=O)c2ccccc2Sc2cc(NC3COC3)ccc21 [Table 6: —CH2CCMe; oxetan-3-yl; CH/CH; S, 10-(But-2-yn-1-yl)-7-(oxetan-3-ylamino)dibenzo[b,f][1,4]thiazepin-11 (10H)-one] | < 500

Same assay, conditions: Table 1; HCT116, 72 hours; read-out: Activity

SMILES | IC50 [nM]
CC#CCN1C(=O)c2ccccc2Sc2cc(NC(=O)N3CCCCC3)ccc21 | < 500

Same assay, conditions: Table 2; HCT116, 72 hours; read-out: Activity

SMILES | IC50 [nM]
CC#CCN1C(=O)c2ccccc2Sc2cc(NC(=S)N3CCCC3)ccc21 | < 500

Same assay, conditions: Table 3; HCT116, 72 hours; read-out: Activity

SMILES | IC50 [nM]
CC#CCN1C(=O)c2ccccc2Sc2cc(NC(=O)Nc3ccc4oc(C)nc4c3)ccc21 | < 500

Same assay, conditions: Table 4; HCT116, 72 hours; read-out: Activity

SMILES | IC50 [nM]
CC#CCN1C(=O)c2ccccc2Sc2cc(NC(=S)Nc3ccc4scnc4c3)cnc21 | < 500
CC#CCN1C(=O)c2ccccc2Sc2cc(NC(=S)Nc3ccc(OC)nc3)cnc21 [Table 4: —CH2CCMe; 6-MeO-pyridin-3-yl; N] | < 500

Same assay, conditions: Table 5; HCT116, 72 hours; read-out: Activity

SMILES | IC50 [nM]
CC=CCN1C(=O)c2ccccc2Sc2cc(Nc3ncc(C)cc3C)cnc21 | < 500
CC#CCN1C(=O)c2ccccc2Sc2cc(Nc3ncccc3C#N)cnc21 | < 500

Same assay, conditions: Table 6; HCT116, 72 hours; read-out: Activity

SMILES | IC50 [nM]
CC#CCN1C(=O)c2ccccc2Cc2cc(NC3CC(COC)C3)ccc21 (stereo not drawn) | < 500
CC#CCN1C(=O)c2ccccc2Cc2cc(NC3COC3)ccc21 | < 500
COC1CC(Nc2ccc3c(c2)Sc2ccccc2C(=O)N3CC#CCl)C1 (stereo not drawn) [Table 6: —CH2CCCl; 3-MeOcBu; CH/CH; S] | < 500
O=C1c2ccccc2Sc2cc(NC3CC(O)C3)cnc2N1CC#CCl (stereo not drawn) [Table 6: —CH2CCCl; 3-HOcBu; CH/N; S] | < 500
C#CCN1C(=O)c2ccccc2Sc2cc(NC3CC(COC)C3)cnc21 (stereo not drawn) [Table 6: —CH2CCH; 3-MeOCH2-cBu; CH/N; S] | < 500
CC#CCN1C(=O)c2ccccc2Sc2cc(NC3CC4(CC(O)C4)C3)ccc21 (stereo not drawn) | < 500

Same assay, conditions: Table 7; cell viability assay, CellTiter-Glo, 72 hours; scaffold drawing 42 with R^2, R^3, X/Y, Z; read-out: Activity

SMILES | IC50 [nM]
COCCN1C(=O)c2ccccc2Sc2cc(NC(=O)C3CCC3)ccc21 [—(CH2)2OMe; cBu; CH/CH; S] | 500 to 1000
COCCN1C(=O)c2ccccc2Sc2cc(NC(=O)c3ccc(OC(F)F)cc3)ccc21 [—(CH2)2OMe; 4-F2HCOPh; CH/CH; S] | 500 to 1000
CNC(=O)c1cccc(C(=O)Nc2ccc3c(c2)Sc2ccccc2C(=O)N3CCOC)c1 [—(CH2)2OMe; 3-MeNHC(O)Ph; CH/CH; S] | 1000 to 5000
COCCN1C(=O)c2ccccc2Sc2cc(NC(=O)c3ccc(N=[N+]=[N-])cc3)ccc21 [—(CH2)2OMe; 4-N3Ph; CH/CH; S] | 1000 to 5000
COCCN1C(=O)c2ccccc2Sc2cc(NC(=O)c3ccno3)ccc21 [—(CH2)2OMe; isoxazol-5-yl; CH/CH; S] | 1000 to 5000
COCCN1C(=O)c2ccccc2Sc2cc(NC(=O)c3ccc(F)cc3)ccc21 [—(CH2)2OMe; 4-FPh; CH/CH; S] | 1000 to 5000
COCCN1C(=O)c2ccccc2Sc2cc(NC(=O)c3cccc(C(F)(F)F)c3)ccc21 [—(CH2)2OMe; 3-CF3Ph; CH/CH; S] | 1000 to 5000
C=CCN1C(=O)c2ccccc2Sc2cc(NC(=O)c3ccoc3)ccc21 [—CH2CH═CH2; furan-3-yl; CH/CH; S] | < 500
C#CCOCCN1C(=O)c2ccccc2Cc2cc(NC(=O)c3ccc(OC)cc3)ccc21 [—(CH2)2OCH2CCH; 4-MeOPh; CH/CH; CH2] | < 500
COCCN1C(=O)c2ccccc2Cc2cc(NC(=O)c3ccoc3)ccc21 [—(CH2)2OMe; furan-3-yl; CH/CH; CH2] | 1000 to 5000
COCCN1C(=O)c2ccccc2Sc2cc(NC(=O)c3ccc4nccn4c3)ccc21 | 1000 to 5000
COCCN1C(=O)c2ccccc2Sc2cc(NC(=O)c3ccccc3OC)ccc21 [—(CH2)2OMe; 2-MeOPh; CH/CH; S] | < 500

Same assay, conditions: Table 8; analogs of scaffold drawing 43 defined by R^2, R^3, X/Y, W; read-out: Activity (IC50 class, cell viability assay)

SMILES | IC50 [nM]
CC#CCN1C(=O)c2ccccc2Sc2cc(NC(=O)C34CC(C#N)(C3)C4)ccc21 | < 500
CC#CCN1C(=O)c2ccccc2Sc2cc(NC(=O)OCCOC)cnc21 [—CH2CCMe; O(CH2)2OMe; CH/CH; N] | < 500
CC#CCN1C(=O)c2ccccc2Sc2cc(NC(=O)C3CCNC3=O)ccc21 (stereo not drawn) | 500 to 1000
CC#CCN1C(=O)c2ccc(Cl)cc2Sc2cc(NC(=O)[C@H]3C[C@@H]3COC)ccc21 (relative stereo) [—CH2CCMe; trans-2-MeOCH2-cPr; CCl/CH; CH] | < 500
CC#CCN1C(=O)c2ccccc2Sc2cc(NC(=O)[C@@H]3C[C@H]3C(=O)OC)cnc21 (relative stereo) [—CH2CCMe; trans-2-MeO2C-cPr; CH/CH; N] | < 500
CC#CCN1C(=O)c2ccc(F)cc2Sc2cc(NC(=O)c3ccc(OCF)cc3)ccc21 [—CH2CCMe; 4-FH2COPh; CF/CH; CH] | < 500
CC#CCN1C(=O)c2ccccc2Sc2cc(NC(=O)[C@@H]3C[C@H]3COC)cnc21 (relative stereo) [—CH2CCMe; trans-2-MeOCH2-cPr; CH/CH; N] | < 500
CC#CCN1C(=O)c2cc(F)ccc2Sc2cc(NC(=O)c3cccc(OC)c3)ccc21 [—CH2CCMe; 3-MeOPh; CH/CF; CH] | < 500
O=C(Nc1ccc2c(c1)Sc1ccc(F)cc1C(=O)N2CC#CC1CC1)C1CC2(CC(O)C2)C1 (stereo not drawn) | < 500
CC#CCN1C(=O)c2ccccc2Sc2cc(NC(=O)C(C)CCOC)ccc21 (stereo not drawn) [—CH2CCMe; MeO(CH2)2CHMe-; CH/CH; CH] | < 500
O=C(Nc1cnc2c(c1)Sc1ccccc1C(=O)N2CC#CC1CC1)C1CC2(COC2)C1 | < 500
COC12CC(C(=O)Nc3cnc4c(c3)Sc3ccccc3C(=O)N4CC#CC3CC3)(C1)C2 | < 500
CC#CCN1C(=O)c2ccc(Cl)cc2Sc2cc(NC(=O)C(C)CCOC)ccc21 (stereo not drawn) [—CH2CCMe; MeO(CH2)2CHMe-; CCI/CH; CH] | < 500
CC#CCN1C(=O)c2cc(F)ccc2Sc2cc(NC(=O)CCCOC)ccc21 [—CH2CCMe; (CH2)3OMe; CH/CF; CH] | < 500
CON=C1CC2(C1)CC(C(=O)Nc1ccc3c(c1)Sc1ccc(F)cc1C(=O)N3CC#CC1CC1)C2 (stereo not drawn) | < 500
O=C(Nc1ccc2c(c1)Sc1ccc(F)cc1C(=O)N2CC#CC1CC1)C1CC2(COC2)C1 | < 500
CC#CCN1C(=O)c2ccccc2Sc2cc(NC(=O)[C@H]3C[C@H](O)C3)ccc21 [—CH2CCMe; trans-3-OH-cBu; CH/CH; CH] | < 500
CC#CCN1C(=O)c2ccccc2Sc2cc(NC(=O)c3ccc(OC)nc3)ccc21 [—CH2CCMe; 6-MeO-pyrid-3-yl; CH/CH; CH] | < 500
O=C(Nc1cnc2c(c1)Sc1ccccc1C(=O)N2CC#CC1CC1)C1CC2(CC(=NO)C2)C1 (stereo not drawn) | < 500
O=C1c2cc(F)ccc2Sc2cc(NC(=O)C34CC(O)(C3)C4)cnc2N1CC#CC1CC1 | < 500
CC#CCN1C(=O)c2cc(F)ccc2Sc2cc(NC(=O)OCCOC)ccc21 [—CH2CCMe; O(CH2)2OMe; CH/CF; CH] | < 500
CO[C@H]1C[C@@H](C(=O)Nc2cnc3c(c2)Sc2cc(Cl)ccc2C(=O)N3CC#CCl)C1 [—CH2CCCl; cis-3-MeOcBu; CCl/CH; N] | < 500
C#CCN1C(=O)c2cc(F)ccc2Sc2cc(NC(=O)[C@H]3C[C@H](OC)C3)ccc21 [—CH2CCH; trans-3-MeOcBu; CH/CF; CH] | < 500

Same assay, conditions: Table 9; HCT116, 72 hours; read-out: Activity

SMILES | IC50 [nM]
CC#CCN1C(=O)c2ccccc2C(C)c2cc(NC(=O)OCCOC)ccc21 (stereo not drawn) [Table 9: —CH2CCMe; O(CH2)2OMe; CHMe] | < 500
CC#CCN1C(=O)c2ccccc2C(C)c2cc(NC(=O)C3CC4(CC(O)C4)C3)ccc21 (stereo not drawn) | < 500
CC1c2ccccc2C(=O)N(CC#CC2CC2)c2ccc(NC(=O)[C@@H]3C[C@H]3CO)cc21 (relative stereo) | < 500
CC1c2ccccc2C(=O)N(CC#CC2CC2)c2ccc(NC(=O)C3CC4(CC(=NO)C4)C3)cc21 (stereo not drawn) | < 500
CC#CCN1C(=O)c2ccccc2Cc2cc(NC(=O)C3CC4(CC(=NO)C4)C3)ccc21 (stereo not drawn) | < 500
CC1c2ccccc2C(=O)N(CC#CC2CC2)c2ccc(NC(=O)C3CCOC3)cc21 (stereo not drawn) | < 500
CC#CCN1C(=O)c2ccccc2C(C)c2cc(NC(=O)[C@H]3C[C@@H](OC)C3)ccc21 (stereo partly drawn) [Table 9: —CH2CCMe; cis-3-MeOcBu; CHMe] | < 500
CC#CCN1C(=O)c2ccccc2Cc2cc(NC(=O)C34CC(OC)(C3)C4)ccc21 | < 500
